The target in one experiment is GCN2 kinase (Homo sapiens (Human), UniProt Q9P2K8). Description: Biochemical assay for GCN2 (TR-FRET kinase activity assay). The following applies: 1 mM ATP, 3-hour incubation. The method, boiled down:
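TR-FRET assay with 2 nM GCN2, 130 nM GFP-eIF2α substrate, 0.2 mg/mL E. coli tRNA and 1 mM ATP; compounds (0.5% DMSO) reacted 3 h. Stopped with 20 mM EDTA plus 2 nM Tb-anti-peIF2α (pSer52), 60 min RT; 520/490 ratio converted to % inhibition, IC50 from four-parameter fit.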
In general terms: Time-resolved FRET reads energy transfer from a long-lived donor to a nearby acceptor.

A further experiment concerns the target PERK kinase (Homo sapiens (Human), UniProt Q9NZJ5). Description: Biochemical assay for PERK (coupled pyruvate kinase/lactate dehydrogenase assay). Particulars: 1 mM ATP, rate from 2-3 h time frame. The method, boiled down: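 Coupled pyruvate kinase/lactate dehydrogenase readout of ATP hydrolysis via NADH oxidation (A340), 10 nM PERK, 0.25 mg/mL myelin basic protein, 1 mM ATP, pH 7.5 Tris/MgCl2 buffer, 1% DMSO. Absorbance followed 6 h at 30° C; rate from the 2-3 h window, normalised to no-compound and known-inhibitor controls, IC50 fitted.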

A further experiment deals with CCRF-CEM leukemia cells. The experiment can be described thus: CCRF-CEM ASNase cell proliferation assay, phenotypic assay for cellular inhibition of GCN2. In kind it is cell-based. The following applies: Homo sapiens; ASNase treated CCRF-CEM cells, 1 mU/mL ASNase, 72 h. The method, boiled down:
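Cells were seeded at ten thousand per well in RPMI-1640 with 10% heat-inactivated FBS and treated in triplicate with serially diluted compound plus 1 mU/mL ASNase for 72 h at 37 °C, 5% CO2. Resazurin was then added for 6 h, with fluorescence read at ex 540/em 600 nm to derive IC50 values.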

Experiment [1] concerns phospho-GCN2 (Thr899) in HCT116 colorectal cancer cells. Description: HCT116 amino acid starved (-AA) phospho-GCN2 assay (Western blot). Particulars: Homo sapiens, HCT-116, 4 h, read-out: HCT116-AA pGCN2 Western Blot. In kind it is cell-based. Put shortly:
(§1)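 HCT116 cells switched to amino-acid-free EBSS (10% dialyzed FBS, 5.5 mM glucose, vitamins) with serial compound dilutions for 4 h at 37° C. Lysates Western blotted for phospho-GCN2 (Thr899), total GCN2, ATF4 and beta-actin; IC50 values derived from quantified bands.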
(A western blot detects proteins with antibodies after separation by electrophoresis.)

In experiment [2] the test system is ATF4 in HCT116 colorectal cancer cells. Description: HCT116 amino acid starved (-AA) ATF4 assay (Western blot). The following applies: Homo sapiens, HCT-116, 4 h. In kind it is cell-based. Put shortly:
as §1

For experiment [3], the system named is ATF4 in CCRF-CEM leukemia cells (PERK). The experiment can be described thus: CCRF-CEM TG ATF4 ELISA, phenotypic assay for cellular inhibition of PERK preactivated by thapsigargin. In kind it is cell-based. The following applies: Homo sapiens; Thapsigargin (1 μM) stimulated CCRF-CEM cells. (In general: ELISA stands for enzyme-linked immunosorbent assay.)
For experiment [4], the system named is ATF4 in H929 multiple myeloma cells. Description: H929 ATF4 ELISA assay (stimulation of cellular ATF4). In kind it is cell-based. The following applies: 4 h, no thapsigargin. Here is the method:
H929 multiple myeloma cells (catalog #CRL-9068) were obtained from the American Type Culture Collection (ATTC, Manassas, VA). Briefly, cells were grown in RPMI-1640 medium supplemented with 20% heat-inactivated fetal bovine serum (catalog #A3840002, ThermoFisher Scientific, Waltham, MA), 1% Penicillin/Streptomycin/L-Glutamine (catalog #10378016, ThermoFisher Scientific, Waltham, MA), and 0.05 mM 2-mercaptoethanol (catalog #21985-023, ThermoFisher Scientific, Waltham, MA) at 37° C., 5% CO2, and 95% humidity. Cells were expanded until reaching one million five hundred thousand cells per mL at which time they were subcultured or harvested for assay use. One million five hundred thousand cells per well in 1 mL complete growth medium were dispensed into 12-well plates and incubated overnight. A serial dilution of test compound was added, and cells were incubated at 37° C., 5% CO2, and 95% for four hours. Cells were lysed then ATF4 levels were measured using an ELISA assay (Proteintech, Rosemont, IL). Absorbance is measured at 450 nm and 544 nM using a Synergy2 or equivalent reader (Biotek, Winooski VT). Data were analyzed using PRISM software (Graphpad, San Diego, CA) to calculate fold stimulation of cellular ATF4 relative to vehicle treated control.

pIC50: −log10 of the molar value.

Chain of GCN2 kinase (Q9P2K8 whole entry): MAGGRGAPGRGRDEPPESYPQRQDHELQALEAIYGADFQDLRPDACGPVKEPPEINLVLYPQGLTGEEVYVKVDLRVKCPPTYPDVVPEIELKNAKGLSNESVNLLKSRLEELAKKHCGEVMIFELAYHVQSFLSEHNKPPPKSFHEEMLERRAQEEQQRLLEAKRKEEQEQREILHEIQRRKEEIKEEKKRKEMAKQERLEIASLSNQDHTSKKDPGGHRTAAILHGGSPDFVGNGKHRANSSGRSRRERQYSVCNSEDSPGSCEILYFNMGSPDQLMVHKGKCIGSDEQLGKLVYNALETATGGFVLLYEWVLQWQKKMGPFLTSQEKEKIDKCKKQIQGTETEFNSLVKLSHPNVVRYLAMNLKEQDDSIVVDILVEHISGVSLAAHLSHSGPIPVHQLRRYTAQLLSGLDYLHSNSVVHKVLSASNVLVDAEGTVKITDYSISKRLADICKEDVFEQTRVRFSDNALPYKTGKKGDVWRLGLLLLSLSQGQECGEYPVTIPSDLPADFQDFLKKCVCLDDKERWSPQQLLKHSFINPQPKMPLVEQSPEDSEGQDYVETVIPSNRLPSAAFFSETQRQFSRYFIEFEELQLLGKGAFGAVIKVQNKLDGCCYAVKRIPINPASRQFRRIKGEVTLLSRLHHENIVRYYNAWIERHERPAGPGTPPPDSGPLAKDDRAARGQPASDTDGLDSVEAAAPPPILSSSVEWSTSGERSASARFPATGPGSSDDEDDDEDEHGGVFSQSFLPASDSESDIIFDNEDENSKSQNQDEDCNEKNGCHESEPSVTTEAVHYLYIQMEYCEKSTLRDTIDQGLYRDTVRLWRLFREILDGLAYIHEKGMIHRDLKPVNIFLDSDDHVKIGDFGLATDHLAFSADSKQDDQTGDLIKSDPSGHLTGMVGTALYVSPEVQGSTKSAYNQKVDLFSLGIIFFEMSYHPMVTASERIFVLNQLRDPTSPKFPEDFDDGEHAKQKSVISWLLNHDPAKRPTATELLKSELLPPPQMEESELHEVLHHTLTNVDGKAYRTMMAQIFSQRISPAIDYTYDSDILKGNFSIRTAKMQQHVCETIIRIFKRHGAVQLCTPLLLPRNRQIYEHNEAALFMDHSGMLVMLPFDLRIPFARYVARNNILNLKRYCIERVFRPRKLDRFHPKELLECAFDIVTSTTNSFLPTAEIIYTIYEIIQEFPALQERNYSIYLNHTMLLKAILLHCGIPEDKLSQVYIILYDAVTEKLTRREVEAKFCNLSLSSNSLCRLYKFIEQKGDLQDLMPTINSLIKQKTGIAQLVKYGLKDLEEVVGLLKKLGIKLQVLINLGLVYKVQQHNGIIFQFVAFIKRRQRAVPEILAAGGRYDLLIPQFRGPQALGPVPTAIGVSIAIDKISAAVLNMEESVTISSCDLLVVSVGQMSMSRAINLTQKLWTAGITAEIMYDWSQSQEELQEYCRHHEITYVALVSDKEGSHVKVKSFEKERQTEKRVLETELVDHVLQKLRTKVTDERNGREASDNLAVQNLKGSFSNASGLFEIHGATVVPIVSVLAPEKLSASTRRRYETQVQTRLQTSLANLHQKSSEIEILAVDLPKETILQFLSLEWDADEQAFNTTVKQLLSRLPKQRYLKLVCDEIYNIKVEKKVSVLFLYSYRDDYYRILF
Chain of PERK kinase (Q9NZJ5 other isoform, or with tags, fused parts or gaps): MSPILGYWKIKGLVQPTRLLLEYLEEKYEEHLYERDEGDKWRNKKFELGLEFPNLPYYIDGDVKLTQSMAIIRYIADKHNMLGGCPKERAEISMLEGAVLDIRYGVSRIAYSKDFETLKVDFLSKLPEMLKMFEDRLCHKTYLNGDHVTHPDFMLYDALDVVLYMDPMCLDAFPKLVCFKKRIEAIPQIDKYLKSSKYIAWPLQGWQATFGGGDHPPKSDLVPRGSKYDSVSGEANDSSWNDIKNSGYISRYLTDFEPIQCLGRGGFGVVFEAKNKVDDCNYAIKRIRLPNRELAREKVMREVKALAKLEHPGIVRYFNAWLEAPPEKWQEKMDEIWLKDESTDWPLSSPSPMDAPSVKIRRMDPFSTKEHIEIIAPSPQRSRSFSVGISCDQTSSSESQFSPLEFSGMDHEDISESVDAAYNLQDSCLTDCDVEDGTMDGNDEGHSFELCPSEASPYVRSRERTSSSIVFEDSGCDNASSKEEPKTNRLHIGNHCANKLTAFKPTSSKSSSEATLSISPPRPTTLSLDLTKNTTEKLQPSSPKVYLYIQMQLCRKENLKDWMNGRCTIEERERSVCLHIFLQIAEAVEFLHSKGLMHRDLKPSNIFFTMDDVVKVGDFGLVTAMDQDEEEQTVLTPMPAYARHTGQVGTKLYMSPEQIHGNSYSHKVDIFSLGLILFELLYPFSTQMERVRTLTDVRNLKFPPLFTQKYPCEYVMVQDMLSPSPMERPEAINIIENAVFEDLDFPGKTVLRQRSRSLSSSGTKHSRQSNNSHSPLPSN

Regarding `CNc1nc2nc(Nc3cnn(C)c3)ncc2cc1-c1cccc(NS(=O)(=O)c2cc(Cl)cnc2OC)c1F` [Example 110], the pIC50 was no less than 7.00 against GCN2 kinase; no less than 7.00 on PERK kinase; no less than 7.00 in the experiment on CCRF-CEM leukemia cells; no less than 7.00 in experiment [1]; no less than 7.00 in experiment [2]; 6.30 to 7.00 in experiment [3]. In addition, in experiment [4], the “H929 NS ATF4 ELISA (fold stimulation of ATF4 relative to vehicle)” value is “++ (“++” refers to an ATF4 stim greater than 5 fold and less than or equal to 10 fold)”.
`CNc1ncc2cc(-c3cccc(NS(=O)(=O)c4cccc(CO)c4Cl)c3F)c(NC)nc2n1` [Example 151]: the pIC50 is no less than 7.00 against GCN2 kinase; 6.30 to 7.00 at PERK kinase; no less than 7.00 in the experiment with CCRF-CEM leukemia cells; no less than 7.00 in experiment [1]; no less than 7.00 in experiment [2]; 6.30 to 7.00 in experiment [3]. For the same compound, the “H929 NS ATF4 ELISA (fold stimulation of ATF4 relative to vehicle)” value in experiment [4] is “++ (“++” refers to an ATF4 stim greater than 5 fold and less than or equal to 10 fold)”.
Turning to `CNc1cc2nc(N)c(-c3cccc(NS(=O)(=O)c4cc(Cl)cnc4OC)c3F)cc2cn1` [Example 128], the pIC50 (against GCN2 kinase; against PERK kinase; in the experiment with CCRF-CEM leukemia cells; in experiment [1]; in experiment [2]; in experiment [3]) was no less than 7.00 each time. In experiment [4], the “H929 NS ATF4 ELISA (fold stimulation of ATF4 relative to vehicle)” value is “+++ (“+++” refers to an ATF4 stim greater than 10 fold and less than or equal to 20 fold)”.

For the origin of these results see patent publication US11912668B2, “GCN2 and perk kinase inhibitors and methods of use thereof” (Deciphera Pharmaceuticals, LLC, priority 2020, dated 2024).
